According to PMC8073230, “Development and Verification of a Precolumn Derivatization LC-MS/MS Method for the Pharmacokinetic Study of Houttuynine of Houttuynia Essential Oil” (Molecules, 2021):

Experiment: Pharmacokinetic study of Hou in rats after single administration of HEO (LC-MS/MS, non-compartmental model)
Assay type: in vivo, rat
Conditions: for AUC(0–t) / AUC(0–∞) / C max / T 1/2 / T max / V z: Hou in rat plasma after single administration of HEO; for AUC(0–t) / AUC(0–∞) / C max / T 1/2 / T max / V z / MRT(0–t): n = 6; for MRT(0–t): Hou in rat plasma after HEO
Experimental: The pharmacokinetics of HEO administrated to rat via gavage and injection were evaluated based on the determination of Hou blood concentration by the established LC-MS/MS approach. Furthermore, the parameters of the pharmacokinetics were calculated by a non-compartmental model using the Drug and Statistics Software (DAS), version 3.2.8.
Twelve male SD rats (200 ± 30 g) were kept in an appropriate environment for three days before the start of the experiment. Before drug administration, the rats were fasted except for free water access for 12 h. All animals were randomly divided into two groups with six animals in each group. Blood samples (0.2 mL) were withdrawn at specific time intervals (0 h, 5 min, 10 min, 15 min, 30 min, 1 h, 2 h, 3 h, 4 h, 6 h, 8 h, 12 h, and 24 h) after administration in heparinized tubes. The samples were immediately centrifuged at 3000 rpm, and kept at −20 °C in a refrigerator.
Plasma samples (100 μL) were mixed with 100 μL of DNPH (2 mg/mL), 50 μL of IS (PTD, 200 µg/mL), and 150 μL acetonitrile (containing 2% HCl) with uniform mixing, followed by vigorous vortexing for 3 min to precipitate the protein. Then, all samples were shaken in a water bath oscillator for 15 min at 45 °C. The solutions were then centrifuged. The centrifugation step was repeated once, and plasma samples of Hou were obtained and subjected to LC-MS/MS analysis.
Pharmacokinetic parameters including AUC (0–t), AUC (0–∞), MRT (0–t), MRT (0–∞), CLz and so on, were calculated using the DAS (version 3.2.8, Chinese Pharmacological Association, Beijing, China). The Cmax was obtained from the concentration–time curve. The area under the plasma concentration–time curve from zero to the time of the last measurable sample AUC (0–t)), area under the plasma concentration–time curve from zero to infinity AUC (0−∞), mean residence time from zero to the time of the last measurable sample (MRT0−t), mean residence time from zero to the time of infinity (MRT0−∞), and CLz were calculated using the DAS.

F (absolute bioavailability) (Hou after HEO, gavage (oral administration)): 7.08% | F (Hou after HEO, injection (reference route)): 100% | AUC(0–t) (gavage): 2451.79 ± 300.01 µg·h/L | AUC(0–∞) (gavage): 2451.837 ± 432.74 µg·h/L | C max (gavage): 222.48 ± 20.38 ng/mL | T 1/2 (gavage): 6.45 ± 0.94 h | T max (gavage): 3.71 ± 1.07 h | V z (gavage): 85.81 ± 5.74 L/kg | AUC(0–t) (injection): 32,693.2 ± 1320 μg/L × h | AUC(0–∞) (injection): 34,630.466 ± 1436 μg/L × h | C max (injection): 2010 ± 350 ng/mL | T 1/2 (injection): 5.987 ± 0.52 h | T max (injection): 0.033 ± 0.012 h | V z (injection): 5.611 ± 0.97 L/kg | maximum plasma concentration (Cmax) (Hou in rats after HEO, oral administration): 222.48 ng/mL | MRT(0–t) (first MRT line (r8), gavage): 8.914 ± 2.73 h | MRT(0–t) (first MRT line (r8), injection): 7.575 ± 1.21 h | MRT(0–t) (second MRT line (r9), gavage): 11.594 ± 1.85 h | MRT(0–t) (second MRT line (r9), injection): 9.153 ± 0.98 h
Substance: 3-oxo-dodecanal [Hou]
